In US11866518B2, “Bicyclic peptide ligands specific for TSLP” (BicycleTx Limited, priority 2020, dated 2024):
pKd: −log10 of the molar value. *1 amine or outer side, *2 acyl side, *3 side chain or, on linkers, in order; H or OH if unused. Where a SMILES comes first, the peptide text is derived from it. Bridges are numbered along the chain shown (N, C = ends). TATA = O=C(CC[*:1])N1CN(C(=O)CC[*:2])CN(C(=O)CC[*:3])C1

These compounds were tested against TSLP (Homo sapiens, UniProt Q969D9) (assay: Human TSLP Surface Plasmon Resonance (SPR) binding assay). Conditions: biotinylated human TSLP immobilized on streptavidin chip; 20° C.; steady-state or kinetic 1:1 fit; read-out: hTSLP SPR Kd.
TSLP, sequence (Q969D9 29-159): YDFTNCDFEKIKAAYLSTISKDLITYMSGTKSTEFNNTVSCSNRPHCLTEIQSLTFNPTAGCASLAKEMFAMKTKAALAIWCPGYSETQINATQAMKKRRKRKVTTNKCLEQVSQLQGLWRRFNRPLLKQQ
Set-up: The resulting construct spCD33-6×HN-TEV-hTSLP(29-159)-Avi; 6xHN tag with TEV site (N, cleaved yes); made in house; host or cells: Expi293F cells
For `CC(=O)N[C@H]1CSCCC(=O)N2CN3CN(C2)C(=O)CCSC[C@H](NC(=O)[C@H](CC(=O)O)NC(=O)[C@H](CCC(=O)O)NC(=O)[C@H](CC(C)C)NC(=O)[C@H](Cc2c[nH]c4ccc(F)cc24)NC(=O)[C@H](CCC(N)=O)NC1=O)C(=O)N[C@@H](Cc1c[nH]c2ccc(F)cc12)C(=O)N[C@@H](CCCNC(=N)N)C(=O)NCC(=O)N[C@@H](Cc1ccc(F)cc1)C(=O)N[C@H](C(N)=O)CSCCC3=O` [Example 21, Ac-(SEQ ID NO: 19)], the pKd was 8.04.
`CC(=O)N[C@H]1CSCCC(=O)N2CN3CN(C2)C(=O)CCSC[C@H](NC(=O)[C@H](CC(=O)O)NC(=O)[C@H](CCC(=O)O)NC(=O)[C@H](CC(C)C)NC(=O)[C@H](Cc2c[nH]c4ccccc24)NC(=O)[C@H](CCC(N)=O)NC1=O)C(=O)N[C@@H](Cc1c[nH]c2ccccc12)C(=O)N[C@@H](CCCNC(=N)N)C(=O)NCC(=O)N[C@@H](Cc1ccc(Br)cc1)C(=O)N[C@H](C(N)=O)CSCCC3=O` [Example 26, Ac-(SEQ ID NO: 24)] was tested, and the pKd was 7.96.
`CC(=O)N[C@H]1CSCCC(=O)N2CN3CN(C2)C(=O)CCSC[C@H](NC(=O)[C@H](CC(=O)O)NC(=O)[C@H](CCC(=O)O)NC(=O)[C@H](CC(C)C)NC(=O)[C@H](Cc2c[nH]c4ccccc24)NC(=O)[C@H](CCC(N)=O)NC1=O)C(=O)N[C@@H](Cc1c[nH]c2ccccc12)C(=O)N[C@@H](CCCNC(=N)N)C(=O)NCC(=O)N[C@@H](Cc1cc(F)c(F)c(F)c1)C(=O)N[C@H](C(N)=O)CSCCC3=O` [Example 37, Ac-(SEQ ID NO: 33)] showed a pKd of 7.72.
`CC(=O)N[C@H]1CSCCC(=O)N2CN3CN(C2)C(=O)CCSC[C@H](NC(=O)[C@H](CC(=O)O)NC(=O)[C@H](CCC(=O)O)NC(=O)[C@H](CC(C)C)NC(=O)[C@H](Cc2c[nH]c4ccccc24)NC(=O)[C@H](CCC(N)=O)NC1=O)C(=O)N[C@@H](Cc1c[nH]c2ccccc12)C(=O)N[C@@H](CCCNC(=N)N)C(=O)NCC(=O)N[C@@H](Cc1ccc(Cl)c(F)c1)C(=O)N[C@H](C(N)=O)CSCCC3=O` [Example 41, Ac-(SEQ ID NO: 37)] was tested, and the pKd was 7.62.
With `CC(C)C[C@@H]1NC(=O)[C@H](Cc2c[nH]c3ccccc23)NC(=O)[C@H](CCC(N)=O)NC(=O)[C@@H](N)CSCCC(=O)N2CN3CN(C2)C(=O)CCSC[C@H](NC(=O)[C@H](CC(=O)O)NC(=O)[C@H](CCC(=O)O)NC1=O)C(=O)N[C@@H](Cc1c[nH]c2ccccc12)C(=O)N[C@@H](CCCNC(=N)N)C(=O)NCC(=O)N[C@@H](Cc1ccc(F)cc1)C(=O)N[C@H](C(=O)O)CSCCC3=O` [Example 48, (SEQ ID NO: 15)-COOH] the pKd was 7.48.
`CC(=O)N[C@H]1CSCCC(=O)N2CN3CN(C2)C(=O)CCSC[C@H](NC(=O)[C@H](CC(=O)O)NC(=O)[C@H](CCC(=O)O)NC(=O)[C@H](CC(C)C)NC(=O)[C@H](Cc2c[nH]c4ccccc24)NC(=O)[C@H](CCC(N)=O)NC1=O)C(=O)N[C@@H](Cc1c[nH]c2ccccc12)C(=O)N[C@@H](CCCNC(=N)N)C(=O)NCC(=O)N[C@@H](Cc1ccccc1)C(=O)N[C@H](C(=O)N[C@@H](C)C(=O)N1CCC[C@H]1C(=O)N[C@@H](CC(=O)O)C(=O)N[C@@H](CCC(=O)O)C(=O)N[C@@H](CCCNC(=N)N)C(=O)N[C@@H](CC(=O)O)C(N)=O)CSCCC3=O` [Example 54, Ac-(SEQ ID NO: 38)-APDERD] was tested, and the pKd was 7.34.
For `CC(C)C[C@@H]1NC(=O)[C@H](Cc2c[nH]c3ccccc23)NC(=O)[C@H](CCC(N)=O)NC(=O)[C@@H](NC(=O)[C@H](C)N)CSCCC(=O)N2CN3CN(C2)C(=O)CCSC[C@H](NC(=O)[C@H](CC(=O)O)NC(=O)[C@H](CCC(=O)O)NC1=O)C(=O)N[C@@H](Cc1c[nH]c2ccccc12)C(=O)N[C@@H](CCCNC(=N)N)C(=O)NCC(=O)N[C@@H](Cc1ccccc1)C(=O)N[C@H](C(=O)N[C@@H](CC(=O)O)C(=O)N[C@@H](CC(=O)O)C(=O)N[C@@H](C)C(=O)N[C@@H](Cc1c[nH]cn1)C(=O)N[C@@H](C)C(=O)N1CCC[C@H]1C(N)=O)CSCCC3=O` [Example 55, A-(SEQ ID NO: 38)-DDAHAP], the pKd was 7.33.
`CC(=O)N[C@H]1CSCCC(=O)N2CN3CN(C2)C(=O)CCSC[C@H](NC(=O)[C@H](CC(=O)O)NC(=O)[C@H](CCC(=O)O)NC(=O)[C@H](CC(C)C)NC(=O)[C@H](Cc2c[nH]c4ccccc24)NC(=O)[C@H](CCC(N)=O)NC1=O)C(=O)N[C@@H](Cc1c[nH]c2ccccc12)C(=O)N[C@@H](CCCNC(=N)N)C(=O)NCC(=O)N[C@@H](Cc1cc(F)c(Cl)c(F)c1)C(=O)N[C@H](C(N)=O)CSCCC3=O` [Example 58, Ac-(SEQ ID NO: 46)] was tested, and the pKd was 7.28.
`CC(C)C[C@@H]1NC(=O)[C@H](Cc2c[nH]c3ccccc23)NC(=O)[C@H](CCC(N)=O)NC(=O)[C@@H](NC(=O)[C@@H](NC(=O)[C@H](CCCNC(=N)N)NC(=O)[C@H](CCC(N)=O)NC(=O)[C@H](CCC(=O)O)NC(=O)[C@H](CC(=O)O)NC(=O)[C@@H](N)CO)[C@@H](C)O)CSCCC(=O)N2CN3CN(C2)C(=O)CCSC[C@H](NC(=O)[C@H](CC(=O)O)NC(=O)[C@H](CCC(=O)O)NC1=O)C(=O)N[C@@H](Cc1c[nH]c2ccccc12)C(=O)N[C@@H](CCCNC(=N)N)C(=O)NCC(=O)N[C@@H](Cc1ccccc1)C(=O)N[C@H](C(=O)N[C@@H](C)C(N)=O)CSCCC3=O` [Example 61, SDEQRT-(SEQ ID NO: 38)-A] gave a pKd of 7.21.
Compound `CC(C)C[C@@H]1NC(=O)[C@H](Cc2c[nH]c3ccccc23)NC(=O)[C@H](CCC(N)=O)NC(=O)[C@@H](NC(=O)CNC(=O)[C@@H](NC(=O)[C@H](CCC(=O)O)NC(=O)[C@H](CC(=O)O)NC(=O)[C@@H](NC(=O)[C@@H](N)CCCNC(=N)N)[C@@H](C)O)[C@@H](C)O)CSCCC(=O)N2CN3CN(C2)C(=O)CCSC[C@H](NC(=O)[C@H](CC(=O)O)NC(=O)[C@H](CCC(=O)O)NC1=O)C(=O)N[C@@H](Cc1c[nH]c2ccccc12)C(=O)N[C@@H](CCCNC(=N)N)C(=O)NCC(=O)N[C@@H](Cc1ccccc1)C(=O)N[C@H](C(=O)N[C@@H](C)C(N)=O)CSCCC3=O` [Example 67, RTDETG-(SEQ ID NO: 38)-A] has a pKd of 7.12.
`CC(=O)N[C@H]1CSCCC(=O)N2CN3CN(C2)C(=O)CCSC[C@H](NC(=O)[C@H](CC(=O)O)NC(=O)[C@H](CCC(=O)O)NC(=O)[C@H](CC(C)C)NC(=O)[C@H](Cc2cccc4ccccc24)NC(=O)[C@H](CCC(N)=O)NC1=O)C(=O)N[C@@H](Cc1c[nH]c2ccccc12)C(=O)N[C@@H](CCCNC(=N)N(C)C)C(=O)NCC(=O)N[C@@H](Cc1ccc(F)cc1)C(=O)N[C@H](C(=O)O)CSCCC3=O` [Example 69, Ac-(SEQ ID NO: 34)-COOH] showed a pKd of 7.11.
`CC(C)C[C@@H]1NC(=O)[C@H](Cc2c[nH]c3ccccc23)NC(=O)[C@H](CCC(N)=O)NC(=O)[C@@H](NC(=O)[C@H](CCC(=O)O)NC(=O)[C@H](CC(C)C)NC(=O)[C@H](CC(N)=O)NC(=O)[C@H](CC(N)=O)NC(=O)[C@@H](NC(=O)[C@@H](N)CCC(=O)O)[C@@H](C)O)CSCCC(=O)N2CN3CN(C2)C(=O)CCSC[C@H](NC(=O)[C@H](CC(=O)O)NC(=O)[C@H](CCC(=O)O)NC1=O)C(=O)N[C@@H](Cc1c[nH]c2ccccc12)C(=O)N[C@@H](CCCNC(=N)N)C(=O)NCC(=O)N[C@@H](Cc1ccccc1)C(=O)N[C@H](C(=O)N[C@@H](C)C(N)=O)CSCCC3=O` [Example 71, ETNNLE-(SEQ ID NO: 38)-A] was tested, and the pKd was 7.09.
For `CC(=O)N[C@H]1CSCCC(=O)N2CN3CN(C2)C(=O)CCSC[C@H](NC(=O)[C@H](CC(=O)O)NC(=O)[C@H](CCC(=O)O)NC(=O)[C@H](CC(C)C)NC(=O)[C@H](Cc2c[nH]c4ccccc24)NC(=O)[C@H](CCC(N)=O)NC1=O)C(=O)N[C@@H](Cc1c[nH]c2ccccc12)C(=O)N[C@@H](CCCNC(=N)N)C(=O)NCC(=O)N[C@@H](Cc1ccc(C(F)(F)F)cc1)C(=O)N[C@H](C(N)=O)CSCCC3=O` [Example 77, Ac-(SEQ ID NO: 58)], the pKd was 7.03.
`CC(=O)N[C@H]1CSCCC(=O)N2CN3CN(C2)C(=O)CCSC[C@H](NC(=O)[C@H](CC(=O)O)NC(=O)[C@H](CCC(=O)O)NC(=O)[C@H](CC(C)C)NC(=O)[C@H](Cc2c[nH]c4ccccc24)NC(=O)[C@H](CCC(N)=O)NC1=O)C(=O)N[C@@H](Cc1c[nH]c2ccccc12)C(=O)N[C@@H](CCCC[N+](C)(C)C)C(=O)NCC(=O)N[C@@H](Cc1ccccc1)C(=O)N[C@H](C(N)=O)CSCCC3=O` [Example 81, Ac-(SEQ ID NO: 61)] gave a pKd of 7.00.
For `CC(C)C[C@@H]1NC(=O)[C@H](Cc2c[nH]c3ccccc23)NC(=O)[C@H](CCC(N)=O)NC(=O)[C@@H](N)CSCCC(=O)N2CN3CN(C2)C(=O)CCSC[C@H](NC(=O)[C@H](CC(=O)O)NC(=O)[C@H](CCC(=O)O)NC1=O)C(=O)N[C@@H](Cc1c[nH]c2ccccc12)C(=O)N[C@@H](CCCNC(N)=O)C(=O)NCC(=O)N[C@@H](Cc1ccccc1)C(=O)N[C@H](C(N)=O)CSCCC3=O` [Example 102, (SEQ ID NO: 76)], the pKd was 6.77.
Work on `CC(C)C[C@@H]1NC(=O)[C@H](Cc2c[nH]c3ccccc23)NC(=O)[C@H](CC(N)=O)NC(=O)[C@@H](NC(=O)[C@H](C)N)CSCCC(=O)N2CN3CN(C2)C(=O)CCSC[C@H](NC(=O)[C@H](CC(=O)O)NC(=O)[C@H](CCC(=O)O)NC1=O)C(=O)N[C@@H](Cc1c[nH]c2ccccc12)C(=O)N[C@@H](Cc1c[nH]cn1)C(=O)NCC(=O)N[C@@H](Cc1ccccc1)C(=O)N[C@H](C(=O)N[C@@H](Cc1c[nH]cn1)C(=O)N[C@@H](CCC(=O)O)C(=O)N[C@@H](CCC(=O)O)C(N)=O)CSCCC3=O` [Example 125, A-(SEQ ID NO: 89)-HEE] (H-ACNWLEDCWHGFCHEE-NH2; linker 2-8-13 via TATA) yielded a pKd of 6.52.
With `CC(C)C[C@@H]1NC(=O)[C@H](Cc2c[nH]c3ccccc23)NC(=O)[C@H](CCC(N)=O)NC(=O)[C@@H](N)CSCCC(=O)N2CN3CN(C2)C(=O)CCSC[C@H](NC(=O)[C@H](CC(=O)O)NC(=O)[C@H](CCC(=O)O)NC1=O)C(=O)N[C@@H](Cc1c[nH]c2ccccc12)C(=O)N[C@@H](CCCNC(=N)N)C(=O)NCC(=O)N[C@@H](Cc1ccccc1)C(=O)N[C@H](C(=O)N[C@@H](CC(=O)O)C(=O)N[C@H](C(=O)N[C@@H](CO)C(=O)N[C@H](C(=O)N[C@@H](Cc1c[nH]cn1)C(=O)N[C@@H](CO)C(N)=O)[C@@H](C)O)[C@@H](C)O)CSCCC3=O` [Example 128, (SEQ ID NO: 38)-DTSTHS] (H-CQWLEDCWRGFCDTSTHS-NH2; linker 1-7-12 via TATA) the pKd was 6.42.
